For one data set, the system named is C. albicans CaCi-2. Kind of data set: Checkerboard with fluconazole, Bliss independence. Format: cell-based, Candida albicans. To be noted: 48 hours. How it is done:
Each colored box represents the mean of duplicate determinations. […] Error bars, SD.
(§1) Antifungal tolerance and resistance were determined in flat bottom, 96-well microtiter plates using a modified broth microdilution protocol as described[8],[10]. All Hsp90 inhibitors were formulated in dimethyl sulfoxide (DMSO, Sigma Aldrich Co.); fluconazole was dissolved in sterile ddH2O. Each strain was tested in duplicate on at least two occasions. […] To test for fungicidal activity, cultures from MIC plates were spotted on YPD agar plates using a spotter (Frogger, V&P Scientific, Inc). Plates were photographed after 48 h of incubations at 30 °C.

Data set [1] concerns S. cerevisiae expressing human Hsp90α. The class given is cell-based, Saccharomyces cerevisiae. Conditions: isogenic strains.
From the text: (§2) A critical consideration in the development of an effective antifungal is not just target binding, but also access to the target across microbial cell membranes and cell walls. Therefore, we evaluated the potency and selectivity of oxime analogs using drug susceptibility assays. We used strains of S. cerevisiae where both endogenous genes encoding isoforms of Hsp90 have been disrupted and growth is solely dependent upon C. albicans or human Hsp90 isoforms.
as §1

In the next data set the test system is Raw264.7 macrophages. Kind of data set: Phagocytosis of GFP C. albicans by macrophages, flow cytometry. Format: cell-based, mouse. Conditions: 2 h pre-treatment. The method, then:
Compromise of host immune function and other target-related toxicities preclude the use of non-species-selective Hsp90 inhibitors in the treatment of fungal infections. Host defense against invasive infection relies heavily on the ingestion and destruction of C. albicans by innate immune cells, such as macrophages. […] After an additional two hours, phagocytosis of the fluorescently labeled fungi was measured by flow cytometry. […] This Hsp90-dependent morphogenetic program has an important role in the organism’s virulence and interactions with host immune effectors such as macrophages.
The ingestion of GFP-marked C. albicans CaCi-2 (CaLC867, Table S4) by mouse macrophages was monitored using flow cytometry. Raw264.7 macrophage cultures were pre-treated with various concentrations of Hsp90 inhibitors for 2 h at 37 °C and then infected with fungus at a multiplicity of infection of ~2 for an additional 2 h. Wells were harvested by trypsinization and resultant cell suspensions incubated with Guava ViaCount reagent per manufacturer’s recommendation (Millipore Sigma, Cat #4000-0040). Red fluorescent signal was used to identify macrophages while green fluorescent signal identified the fungus. Dual positive (red and green) events with appropriate forward- and side-scatter parameters were quantitated as representative of ingestion of fungus by a macrophage. […]
Background: A flow cytometer gives signals particle by particle.

Data set [2] has as its system S. cerevisiae expressing C. albicans Hsp90. Kind of data set: Broth microdilution growth inhibition (MIC), yeast with C. albicans Hsp90 as sole Hsp90. The class given is cell-based, Saccharomyces cerevisiae. Conditions: twofold dilution series, heat map.
From the text: as §2, §1

The next data set relates to C. albicans SN95. The data set can be described thus: Growth inhibition in culture. Format: cell-based, Candida albicans. To be noted: 48-hour exposure.
From the text: (§3) We began by measuring inhibition of C. albicans growth in culture.
(§4) Each colored box represents the mean of duplicate determinations. Color scale for relative growth is provided to far right of panel, green: no inhibition to black: complete inhibition. […] Cultures were then fixed and stained by Periodic Acid-Schiff (PAS) technique to visualize fungal burden (dark red/purple signal) and underlying human cells (light pink signal). Representative fields from conventional light photomicrographs are presented at the same magnification in all panels. The experiment was repeated in two independent biological replicates to confirm results. Scale bar, 100 μm
as §1

For data set [3], the system named is C. albicans clinical isolate CaCi-2. The data set can be described thus: Growth inhibition in culture. Conditions: 48-hour exposure. Format: cell-based, Candida albicans.
From the text: as §3, §4, §1

Regarding `C[C@@H]1C[C@H]2O[C@@H]2/C=C\C=C\C(=O)Cc2c(Cl)c(O)cc(O)c2C(=O)O1` [radicicol, reference compound], the heat-shock reporter activation result in the data set with 293T reporter cells is “concentration-dependent reporter activation”. In addition, the “Bliss synergy δ with fluconazole” value in the data set with C. albicans CaCi-2 came out at 22.6. For the same compound, the “activity compared with strain expressing C. albicans Hsp90” value in data set [1] was “converse”. In addition, the “effect on engulfment of C. albicans” value with Raw264.7 macrophages is given as “Neither compound impaired engulfment”. The growth inhibition entry in data set [2] was “significantly inhibit growth”. For the same compound, the single-agent growth inhibition entry (in the data set with C. albicans SN95; in data set [3]) was “comparable single-agent activity” throughout.

These data come from paper PMC6345968, “Structural basis for species-selective targeting of Hsp90 in a pathogenic fungus” (Nature Communications, 2019).
